What was measured:
[1] = “free chlorine” (Hach Method 8021) and “total chlorine” (Hach Method 8167) in dosed simulated cooling water, Example 1; format: physicochemical; settings: for Free Cl2 / Total Cl2 / % hydrolysis to Free Cl2: simulated cooling water pH 9.1, 38° C.
Text: The standard tests for determination of “free chlorine” and “total chlorine” are based on classical test procedures devised by Palin in 1974. See A. T. Palin, “Analytical Control of Water Disinfection With Special Reference to Differential DPD Methods For Chlorine, Chlorine Dioxide, Bromine, Iodine and Ozone”, J. Inst. Water Eng., 1974, 28, 139. While there are various modernized versions of the Palin procedures, the version of the tests for “free chlorine” and “total chlorine” used and to be used as the standard in connection with this invention, are fully described in Hach Water Analysis Handbook, 3rd edition, copyright 1997. The procedure for “free chlorine” is identified in that publication as Method 8021 appearing on page 335, whereas the procedure for “total chlorine” is Method 8167 appearing at page 379. Briefly, the “free chlorine” test involves introducing to the halogenated water a powder comprising DPD indicator powder and a buffer. “Free chlorine” present in the water reacts with the DPD indicator to produce a red to pink coloration. The intensity of the coloration depends upon the concentration of “free chlorine” species present in the sample. This intensity is measured by a calorimeter calibrated to transform the intensity reading into a “free chlorine” value in terms of mg/L Cl2. Similarly, the “total chlorine” test also involves use of DPD indicator and buffer. In this case, KI is present with the DPD and buffer whereby the halogen species present, including nitrogen-combined halogen, reacts with KI to yield iodine species which turn the DPD indicator to red/pink. The intensity of this coloration depends upon the sum of the “free chlorine” species and all other halogen species present in the sample. Consequently, this coloration is transformed by the colorimeter into a “total chlorine” value expressed as mg/L Cl2.
DBDAH and BCDMH Test Procedure • 1. To determine the amount of species present in the water which respond to the “free chlorine” and “total chlorine” tests, the water sample should be analyzed within a few minutes of being taken, and preferably immediately upon being taken. • 2. Hach Method 8021 for testing the amount of species present in the water sample which respond to the “free chlorine” test involves use of the Hach Model DR 2010 calorimeter. The stored program number for chlorine determinations is recalled by keying in “80” on the keyboard, followed by setting the absorbance wavelength to 530 nm by rotating the dial on the side of the instrument. Two identical sample cells are filled to the 10 mL mark with the water under investigation. One of the cells is arbitrarily chosen to be the blank. Using the 10 mL cell riser, this is admitted to the sample compartment of the Hach Model DR 2010, and the shield is closed to prevent stray light effects. Then the ZERO key is depressed. After a few seconds, the display registers 0.00 mg/L Cl2. To second cell, the contents of a DPD Free Chlorine Powder Pillow are added. This is shaken for 10-20 seconds to mix, as the development of a pink-red color indicates the presence of species in the water which respond positively to the DPD test reagent. Within one minute of adding the DPD “free chlorine” reagent to the 10 mL of water in the sample cell, the blank cell used to zero the instrument is removed from the cell compartment of the Hach Model DR 2010 and replaced with the test sample to which the DPD “free chlorine” test reagent was added. The light shield is then closed as was done for the blank, and the READ key is depressed. The result, in mg/L Cl2 is shown on the display within a few seconds. This is the “free chlorine” level of the water sample under investigation. • 3. Hach Method 8167 for testing the amount of species present in the water sample which respond to the “total chlorine” test involves use of the Hach Model DR 2010 calorimeter. […]

aerobic bacteria = experiment: Cooling tower field trial of 51 days, Example 3: bacteria levels
Text: Using the same cooling tower as used in Example 2, the effectiveness of 1,3-dibromo-5,5-dimethylhydantoin in microbiological control in cooling tower water was investigated. As noted above, the cooling tower consisted of two 500-ton units in a crossflow design. The total system-contained volume was 14,000 gallons, and the tower contained medium efficiency film fill. Water from the tower cooled the coils of two 300-ton air conditioners (chillers). The tower typically operated at a pH of about 9.1 and 4 cycles of concentration. Blowdown was controlled by conductivity. Make-up water consisted of softened city water and which was of good quality. The make-up water was very low in calcium (<10 mg/L) but high in pH (8.7). The alkalinity was 145 mg/L (as CaCO3), and the silica level was 28 mg/L. The tower employed a conventional polyphosphate/molybdate/phosphonate program to provide corrosion and deposit control.
The 1,3-dibromo-5,5-dimethylhydantoin was introduced to the water using granules charged to a solid halogen feeder (Neptune model BT-40, Neptune Chemical Pump Co., Inc., Lansdale, Pa.). The field trial lasted 51 days. The tower was slug dosed three times a week with 1,3-dibromo-5,5-dimethylhydantoin. Slug dosing was accomplished by diverting a sidestream of the recirculating water through the feeder containing the granules for about 1 to 5 hours until a total halogen residual of about 0.75 mg/L (as Cl2) was obtained. This biocide program reduced bacterial levels in the bulk water by an average of 2 orders of magnitude, with bacteria levels in the bulk water after the biocide dose ranging from 10^1 to 10^3 CFUs/mL.
The results from the average of several analyses conducted during the course of this field trial using DBDMH were as follows: In the microbiological tests, the levels of aerobic bacteria were in the range of 6×10^0 to 3×10^3 CFUs/mL in the cooling tower water and 10^0 in the make-up water. […]

[2] = dosed to 1 mg/L as total chlorine, Time 0 hr
[3] = Time 0.5 hr, percentage of Time 0 value
[4] = Time 1 hr, percentage of Time 0 value
[5] = Time 1.5 hr, percentage of Time 0 value
[6] = Time 2 hr, percentage of Time 0 value
[7] = Time 3 hr, percentage of Time 0 value
[8] = Time 4 hr, percentage of Time 0 value
[9] = Time 5 hr, percentage of Time 0 value
[10] = Time 6 hr, percentage of Time 0 value

Free Cl2 [1, 2]: 98.8 | Total Cl2 [1, 2]: 100 | % hydrolysis to Free Cl2 ([1]; Time 0 hr): 98.8% | % hydrolysis to Free Cl2 ([1]; Time 0.5 hr): 95.6% | Free Cl2 [1, 3]: 100% | Total Cl2 [1, 3]: 104% | % hydrolysis to Free Cl2 ([1]; Time 1 hr): 97.3% | Free Cl2 [1, 4]: 85.1% | Total Cl2 [1, 4]: 87.3% | % hydrolysis to Free Cl2 ([1]; Time 1.5 hr): 100% | Free Cl2 [1, 5]: 87.3% | Total Cl2 [1, 5]: 87.3% | % hydrolysis to Free Cl2 ([1]; Time 2 hr): 97.2% | Free Cl2 [1, 6]: 81.6% | Total Cl2 [1, 6]: 83.9% | % hydrolysis to Free Cl2 ([1]; Time 3 hr): 93.8% | Free Cl2 [1, 7]: 70.1% | Total Cl2 [1, 7]: 74.7% | % hydrolysis to Free Cl2 ([1]; Time 4 hr): 93.8% | Free Cl2 [1, 8]: 65.5% | Total Cl2 [1, 8]: 66.6% | % hydrolysis to Free Cl2 ([1]; Time 5 hr): 96.4% | Free Cl2 [1, 9]: 60.1% | Total Cl2 [1, 9]: 63.2% | % hydrolysis to Free Cl2 ([1]; Time 6 hr): 96.3% | Free Cl2 [1, 10]: 59.8% | Total Cl2 [1, 10]: 62% | “total chlorine” level higher than the “free chlorine level” of the water ([1]; water of pH of at least 8 freshly treated): no more than 10%
SMILES: CC1(C)C(=O)N(Br)C(=O)N1Br [DBDMH, 1,3-dibromo-5,5-dimethylhydantoin]
levels of aerobic bacteria (aerobic bacteria; in the cooling tower water, several analyses during field trial): 6×10^0 to 3×10^3 CFUs/mL | bacteria levels in the bulk water after the biocide dose (aerobic bacteria; slug dosed three times a week to total halogen residual about 0.75 mg/L (as Cl2)): 10^1 to 10^3 CFUs/mL | average reduction of bacterial levels in the bulk water (aerobic bacteria; slug dosed three times a week to total halogen residual about 0.75 mg/L (as Cl2), 51 days): 2 orders of magnitude
